The text below walks through data of ChEMBL document CHEMBL1201862, “PubChem BioAssay data set” (2004).

Test systems include TK-10; SF-268; HCC 2998; NCI-H522; M14; NCI/ADR-RES; MDA-MB-231; UO-31; OVCAR-4; MDA-MB-435; SN12C; 786-0; OVCAR-8; IGROV-1; U-251; NCI-H460; SK-MEL-2; Malme-3M; HT-29; T47D.
Common to all, as to assay: inhibition of tumour cell growth, NCI panel, 48 h

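In this assay, cells in 96-well plates receive the compound at five concentrations for 48 hours. Endpoints are linearly interpolated between the surrounding concentrations. GI50 = concentration required for 50% inhibition of growth.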 Active and inactive are the calls of the source. Rule as the data show it: active = GI50 up to about 1.1 µM and inactive = higher.

For `Cc1cc(N)ccc1C=O`, the GI50 with TK-10, with SF-268, with HCC 2998, in the assay on NCI-H522, with M14 and in the assay on NCI/ADR-RES was > 100 µM (inactive) in each case. Besides, the GI50 with MDA-MB-231, in the assay with UO-31, with OVCAR-4, in the assay on MDA-MB-435, with SN12C and in the assay on 786-0 was > 100 µM (inactive) each time. In addition, the GI50 in the assay on OVCAR-8, in the assay on IGROV-1, in the assay on U-251, in the assay with NCI-H460, in the assay with SK-MEL-2 and with Malme-3M was > 100 µM (inactive) each time. Moreover, the GI50 in the assay with HT-29 and in the assay with T47D was > 100 µM (inactive) each time.
Consider `COC(=O)/C=C1/CCC(C)(C(=O)NS(=O)(=O)c2ccc(C)cc2)C1(C)C` (stereo not given), for which the GI50 in the assay on TK-10, with SF-268, in the assay on HCC 2998, in the assay with NCI-H522, in the assay on M14 and with NCI/ADR-RES was > 100 µM (inactive) in each case. Also, the GI50 in the assay with MDA-MB-231, in the assay on UO-31, in the assay on OVCAR-4, in the assay on MDA-MB-435, in the assay on SN12C and in the assay with 786-0 was > 100 µM (inactive) in each case. Further, the GI50 with OVCAR-8, with IGROV-1, in the assay with U-251, with NCI-H460, with SK-MEL-2 and with Malme-3M was > 100 µM (inactive) in each case. Moreover, in the assay on T47D, the GI50 was > 100 µM (inactive).
Regarding `NS(=O)(=O)c1ccc(Nc2c3ccccc3nc3c(C(=O)NCCO)cccc23)cc1`, the GI50 in the assay on TK-10 is 0.27 µM (active); with SF-268, 0.141 µM (active); in the assay with HCC 2998, 0.182 µM (active); with NCI-H522, 0.127 µM (active); in the assay on M14 it was 0.182 µM (active); with NCI/ADR-RES, 0.408 µM (active). Further, the GI50 is 0.184 µM (active) with MDA-MB-231; 0.181 µM (active) in the assay on UO-31; 0.195 µM (active) with OVCAR-4; 0.203 µM (active) in the assay with MDA-MB-435; 0.176 µM (active) with SN12C; 0.145 µM (active) in the assay on 786-0. The GI50 in the assay on OVCAR-8 is 0.173 µM (active); in the assay on IGROV-1, 0.115 µM (active); with U-251, 0.0728 µM (active); in the assay with NCI-H460, 0.0439 µM (active); in the assay on SK-MEL-2, 0.186 µM (active); in the assay on Malme-3M, 0.13 µM (active). The GI50 with HT-29 was 0.16 µM (active); in the assay on T47D it was 0.03 µM (active).
Regarding `O=C1/C(=C/c2ccc(O)cc2)Oc2ccccc21`, the GI50 in the assay on TK-10 was > 100 µM (inactive); with SF-268, > 100 µM (inactive); in the assay with HCC 2998, > 100 µM (inactive); in the assay on NCI-H522, 23.8 µM (inactive); in the assay with M14, > 100 µM (inactive); with NCI/ADR-RES, > 100 µM (inactive). Besides, the GI50 was > 100 µM (inactive) in the assay on MDA-MB-231; 72.6 µM (inactive) with OVCAR-4; 83.9 µM (inactive) in the assay on MDA-MB-435; > 100 µM (inactive) in the assay on SN12C; > 100 µM (inactive) in the assay with 786-0; > 100 µM (inactive) in the assay with OVCAR-8. Besides, the GI50 in the assay with IGROV-1, in the assay on U-251, in the assay on NCI-H460, in the assay with SK-MEL-2, in the assay with Malme-3M and in the assay with HT-29 was > 100 µM (inactive) throughout. In addition, in the assay with T47D, the GI50 was > 100 µM (inactive).
With `CSc1c(C(=O)Nc2ccccc2)c(N)n(N)c(=O)c1C#N`, the GI50 with TK-10 is > 100 µM (inactive); with SF-268 it was > 100 µM (inactive); in the assay on HCC 2998, > 100 µM (inactive); in the assay with NCI-H522 it was 64 µM (inactive); in the assay on M14, > 100 µM (inactive); in the assay on NCI/ADR-RES, > 100 µM (inactive). Moreover, the GI50 with MDA-MB-231, in the assay on UO-31, with OVCAR-4, in the assay with MDA-MB-435, in the assay on SN12C and with 786-0 was > 100 µM (inactive) each time. For the same compound, the GI50 with OVCAR-8, in the assay on IGROV-1, with U-251, with NCI-H460, with SK-MEL-2 and with Malme-3M was > 100 µM (inactive) throughout. The GI50 in the assay with HT-29 and in the assay with T47D was > 100 µM (inactive) each time.
For `COc1ccc(/C=C2\CN(C)CC3C2=NC(=S)NC3c2ccc(OC)cc2)cc1` (stereo not given), the GI50 in the assay with TK-10 is 27.2 µM (inactive); with SF-268, 5.64 µM (inactive); with HCC 2998, 6.75 µM (inactive); in the assay with NCI-H522, 1.63 µM (inactive); with M14, 2.77 µM (inactive); with NCI/ADR-RES, 2.55 µM (inactive). The GI50 in the assay with MDA-MB-231 is 13.3 µM (inactive); with UO-31, 4.95 µM (inactive); in the assay with OVCAR-4, 4.92 µM (inactive); with MDA-MB-435, 1.33 µM (inactive); with SN12C, 6.81 µM (inactive); with 786-0 it was 3.66 µM (inactive). For the same compound, the GI50 was 7.8 µM (inactive) in the assay with OVCAR-8; 2.98 µM (inactive) in the assay on IGROV-1; 8.55 µM (inactive) in the assay with U-251; 2.8 µM (inactive) in the assay on NCI-H460; 13.9 µM (inactive) with SK-MEL-2; 2.99 µM (inactive) with Malme-3M. The GI50 was 3.51 µM (inactive) in the assay on HT-29 and 4.11 µM (inactive) with T47D.
`C=C1CCOC2(C(O)C(C)(O)CO)NC(=O)C1(O)NC2=O` (stereo not given): the GI50 in the assay with TK-10, in the assay on SF-268, in the assay with HCC 2998, in the assay with NCI-H522, in the assay with M14 and in the assay on NCI/ADR-RES was > 100 µM (inactive) throughout. Also, the GI50 in the assay with MDA-MB-231, in the assay with UO-31, in the assay with OVCAR-4, in the assay on MDA-MB-435, in the assay on SN12C and in the assay on 786-0 was > 100 µM (inactive) each time. The GI50 in the assay with OVCAR-8, in the assay with IGROV-1, with U-251, in the assay with NCI-H460, in the assay with SK-MEL-2 and in the assay with Malme-3M was > 100 µM (inactive) in each case. The GI50 in the assay on HT-29 and with T47D was > 100 µM (inactive) in each case.
`C#Cc1cc(Br)c(OC(=O)C(C)(C)C)c(-c2cc(C#C)cc(Br)c2OC(=O)C(C)(C)C)c1`: the GI50 is > 100 µM (inactive) in the assay with TK-10; 50 µM (inactive) in the assay on SF-268; 24.4 µM (inactive) in the assay on HCC 2998; 32.5 µM (inactive) with NCI-H522; 43.7 µM (inactive) in the assay with M14; > 100 µM (inactive) in the assay on NCI/ADR-RES. The GI50 is 35.1 µM (inactive) in the assay on MDA-MB-231; 73.1 µM (inactive) in the assay with OVCAR-4; 45.8 µM (inactive) in the assay on MDA-MB-435; 53 µM (inactive) in the assay with SN12C; 41.5 µM (inactive) in the assay with 786-0; 65.3 µM (inactive) with OVCAR-8. For the same compound, the GI50 in the assay with IGROV-1 was 76.9 µM (inactive); in the assay with U-251, 45.1 µM (inactive); in the assay on NCI-H460, 42.5 µM (inactive); in the assay on SK-MEL-2, 49 µM (inactive); in the assay with Malme-3M it was > 100 µM (inactive); in the assay on HT-29, 22.1 µM (inactive). For the same compound, the GI50 in the assay on T47D is 18.3 µM (inactive).
`Cc1cc2c(cc1Cl)SC(NN(C)C)=NS2(=O)=O`: the GI50 with TK-10, with SF-268, in the assay on HCC 2998, with NCI-H522, with M14 and in the assay on NCI/ADR-RES was > 10 µM (inactive) throughout. Further, the GI50 in the assay on MDA-MB-231, in the assay with OVCAR-4, with MDA-MB-435, in the assay with SN12C, in the assay on 786-0 and in the assay with OVCAR-8 was > 10 µM (inactive) each time. The GI50 with IGROV-1, in the assay with U-251, in the assay with NCI-H460, with SK-MEL-2, in the assay on Malme-3M and in the assay on HT-29 was > 10 µM (inactive) each time. The GI50 in the assay on T47D was > 10 µM (inactive).
As to `COC(=O)Cc1ccc2c(cnn2-c2ccccc2)c1OC`, the GI50 in the assay with TK-10, in the assay on SF-268, in the assay on HCC 2998, in the assay on NCI-H522, in the assay with M14 and in the assay with NCI/ADR-RES was > 10 µM (inactive) each time. Moreover, the GI50 in the assay with MDA-MB-231, in the assay on OVCAR-4, with MDA-MB-435, in the assay on SN12C, in the assay with 786-0 and in the assay with OVCAR-8 was > 10 µM (inactive) throughout. For the same compound, the GI50 in the assay with IGROV-1, in the assay on U-251, with NCI-H460, in the assay with SK-MEL-2, in the assay with Malme-3M and in the assay on HT-29 was > 10 µM (inactive) in each case. Besides, in the assay on T47D, the GI50 is > 10 µM (inactive).
